# From the supplement of paper PMC7017272
# ± gives the standard deviation of the averaged measurements.
# Columns and labels:
# Conditions in all cases: treatment time: 3 days
# [1] = test system: UT-SCC-24B; test: maximal % inhibition of viability relative to DMSO; higher = stronger effect
# Experimental: (§1)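 HNSCC cell lines (500 cells/well, 384-well) were cultured on plastic, on top of (2D) or embedded (3D) in Matrigel or human leiomyoma matrix Myogel (500 ug/mL; Myogel 3D mixed with rat collagen I). Cells were treated for 3 days with 5 ten-fold concentrations of each drug, and viability was read by CellTiter-Glo. Viability was normalised to DMSO and benzethonium chloride controls and fitted with the FIMM DSRT pipeline to give IC50 (nM), maximal % inhibition and DSS. Suffixes _1/_2/_3 are replicates. Only inhibition-mode (IC50) fits are kept.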
# [2] = test system: UT-SCC-81; test: as above
# Experimental: as §1
# [3] = test system: UT-SCC-73; test: as above
# Experimental: as §1
# [4] = test system: UT-SCC-14; test: as above
# Experimental: as §1
# [5] = test system: UT-SCC-28; test: as above
# Experimental: as §1
# [6] = test system: UT-SCC-42A; test: as above
# Experimental: as §1
# [7] = test system: UT-SCC-8; test: as above
# Experimental: as §1
# [8] = test system: UT-SCC-106A; test: as above
# Experimental: as §1
# [9] = test system: UT-SCC-40; test: as above
# Experimental: as §1
# [10] = test system: UT-SCC-42B; test: as above
# Experimental: as §1
# [11] = test system: UT-SCC-44; test: as above
# Experimental: as §1
# [12] = test system: UT-SCC-24B; test: relative IC50 (midpoint of the fitted curve; maximal inhibition may be below 50%); higher = less potent
# Outline: (§2)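 HPV-negative HNSCC cell lines were seeded at 500 cells/well in 384-well plates on plastic, on Matrigel- or Myogel-coated wells (500 µg/mL), or embedded in Matrigel or Myogel plus rat collagen I. Compounds were given at five 10-fold concentrations for 3 days, and viability was read by CellTiter-Glo 2.0 luminescence. Signals were normalised to vehicle (0.1% DMSO) and cell-killing control wells. Percent-inhibition dose–response curves were fitted in the FIMM pipeline to derive IC50, maximal inhibition and drug sensitivity score.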
# [13] = test system: UT-SCC-81; test: as above
# Outline: as §2
# [14] = test system: UT-SCC-14; test: as above
# Outline: as §2
# [15] = test system: UT-SCC-28; test: as above
# Outline: as §2
# [16] = test system: UT-SCC-42A; test: as above
# Outline: as §2
# [17] = test system: UT-SCC-8; test: as above
# Outline: as §2
# [18] = culture condition: embedded in Matrigel
# [19] = culture condition: embedded in Myogel + collagen I
# [20] = culture condition: on top of Matrigel
# [21] = culture condition: on top of Myogel
# [22] = culture condition: plastic 2D (no matrix)
smiles,measurement,setting,value
Cn1c(=O)n(-c2ccc(C(C)(C)C#N)cc2)c2c3cc(-c4cnc5ccccc5c4)ccc3ncc21 [Dactolisib],maximal % inhibition of viability,[1]; [18],77.4 ± 0.93%
same,maximal % inhibition of viability,[1]; [19],83.8 ± 1.4%
same,maximal % inhibition of viability,[1]; [20],78.6 ± 1.1%
same,maximal % inhibition of viability,[1]; [21],78.2 ± 1.9%
same,maximal % inhibition of viability,[1]; [22],76.2 ± 2.5%
same,maximal % inhibition of viability,[2]; [18],40.7 ± 33%
same,maximal % inhibition of viability,[2]; [19],7.33 ± 3.7%
same,maximal % inhibition of viability,[2]; [20],5.13 ± 5.4%
same,maximal % inhibition of viability,[2]; [21],11.2 ± 3.1%
same,maximal % inhibition of viability,[2]; [22],6.5 ± 2.2%
same,maximal % inhibition of viability,[3]; [18],11.8 ± 3.4%
same,maximal % inhibition of viability,[3]; [19],40.1 ± 8.9%
same,maximal % inhibition of viability,[3]; [20],9.33 ± 2.9%
same,maximal % inhibition of viability,[3]; [21],8.23 ± 2.8%
same,maximal % inhibition of viability,[3]; [22],1.63 ± 0.76%
same,maximal % inhibition of viability,[4]; [18],16.8 ± 19%
same,maximal % inhibition of viability,[4]; [19],16.2 ± 15%
same,maximal % inhibition of viability,[4]; [20],7.17 ± 5.8%
same,maximal % inhibition of viability,[4]; [21],7.03 ± 7.9%
same,maximal % inhibition of viability,[4]; [22],11.7 ± 10%
same,maximal % inhibition of viability,[5]; [18],19.7 ± 5%
same,maximal % inhibition of viability,[5]; [19],9.5 ± 12%
same,maximal % inhibition of viability,[5]; [20],13.3 ± 2.7%
same,maximal % inhibition of viability,[5]; [22],8.33 ± 5.8%
same,maximal % inhibition of viability,[6]; [18],0.767 ± 1.3%
same,maximal % inhibition of viability,[6]; [19],6.03 ± 5.7%
same,maximal % inhibition of viability,[6]; [20],9.57 ± 4.9%
same,maximal % inhibition of viability,[6]; [21],4.37 ± 2.7%
same,maximal % inhibition of viability,[6]; [22],8.8 ± 3.1%
same,maximal % inhibition of viability,[7]; [18],8.63 ± 5.4%
same,maximal % inhibition of viability,[7]; [19],18.3 ± 10%
same,maximal % inhibition of viability,[7]; [20],13.2 ± 5.7%
same,maximal % inhibition of viability,[7]; [21],9.7 ± 6.6%
same,maximal % inhibition of viability,[7]; [22],6.9 ± 6.6%
same,maximal % inhibition of viability,[8]; [18],3.67 ± 0.31%
same,maximal % inhibition of viability,[8]; [19],7.53 ± 8.4%
same,maximal % inhibition of viability,[8]; [20],4.43 ± 3.8%
same,maximal % inhibition of viability,[8]; [21],5.1 ± 8.8%
same,maximal % inhibition of viability,[8]; [22],7.07 ± 3.2%
same,maximal % inhibition of viability,[9]; [18],18.2 ± 15%
same,maximal % inhibition of viability,[9]; [19],8.93 ± 7.8%
same,maximal % inhibition of viability,[9]; [20],9.4 ± 3.6%
same,maximal % inhibition of viability,[9]; [21],7.2 ± 4.8%
same,maximal % inhibition of viability,[9]; [22],2.4 ± 2.4%
same,maximal % inhibition of viability,[10]; [18],12.9 ± 6%
same,maximal % inhibition of viability,[10]; [20],10.9 ± 6.9%
same,maximal % inhibition of viability,[10]; [21],6.13 ± 1.8%
same,maximal % inhibition of viability,[10]; [22],1.67 ± 0.57%
same,maximal % inhibition of viability,[11]; [18],12.5 ± 9.3%
same,maximal % inhibition of viability,[11]; [19],13.2 ± 23%
same,maximal % inhibition of viability,[11]; [20],13.7 ± 2.4%
same,maximal % inhibition of viability,[11]; [21],12.8 ± 4.1%
same,maximal % inhibition of viability,[11]; [22],16.8 ± 4.5%
same,relative IC50,[12]; [18],55.5 nM
same,relative IC50,[12]; [19],22.1 nM
same,relative IC50,[12]; [20],33.4 nM
same,relative IC50,[12]; [21],31.3 nM
same,relative IC50,[12]; [22],34.7 nM
same,relative IC50,[13]; [19],> 989 nM
same,relative IC50,[13]; [21],> 989 nM
same,relative IC50,[13]; [22],> 989 nM
same,relative IC50,[14]; [19],> 989 nM
same,relative IC50,[14]; [21],> 989 nM
same,relative IC50,[15]; [18],> 989 nM
same,relative IC50,[15]; [22],> 989 nM
same,relative IC50,[16]; [18],> 989 nM
same,relative IC50,[16]; [19],> 989 nM
same,relative IC50,[16]; [20],> 989 nM
same,relative IC50,[16]; [21],> 989 nM
same,relative IC50,[16]; [22],> 989 nM
same,relative IC50,[17]; [18],> 989 nM
same,relative IC50,[17]; [22],> 989 nM
